Legend:
[1] = (−)-Epicatechin isomerisation test (heating of an epicatechin test solution, HPLC); assay type: physicochemical; details: for Epicatechin / Epicatechin % remain: 0.688 mg/ml epicatechin solution, nitrogen-flushed sealed vial; for Other % of start / Other: calculated from 100 − (epicatechin + catechin); for Other: unit assumed; for Catechin / Catechin % of start: formed from 0.688 mg/ml epicatechin
Protocol: In order to test the possibility that epicatechin was isomerising to catechin at higher temperatures, a test solution of 0.688 mg/ml epicatechin was produced and treated as follows: 950 μl of epicatechin was transferred to an auto sampler vial, which was flushed with nitrogen and sealed. The vial was then placed in an oven at a given temperature, for a set time period. The vial was then cooled, the seal removed and 50 μl of internal standard added before analysis. Tests were carried out at 50, 75, 100 and 125° C. for 15 and 30 minutes. Tests were not carried out at 150° C. as the vials are not capable of withstanding the pressure that would be generated.

[2] = Comparison of ethanol extraction with methanol (solubility of epicatechin); assay type: physicochemical; details: ethanol compared with methanol; implied by extraction data of Table 11
Protocol: A comparative extract using 1 g of apple powder and 10 ml methanol gave a figure of 4663 mg/Kg. In order to test if the low recovery figure above was due to low solubility of epicatechin in ethanol a series of tests were performed using 10, 20 and 30:1 w/w.

Epicatechin ([1]; 50° C. 15 min): 0.643 mg/mL
Epicatechin % remain ([1]; 50° C. 15 min): 93.53%
Epicatechin ([1]; 50° C. 30 min): 0.601 mg/mL
Epicatechin % remain ([1]; 50° C. 30 min): 87.40%
Epicatechin ([1]; 75° C. 15 min): 0.550 mg/mL
Epicatechin % remain ([1]; 75° C. 15 min): 79.92%
Epicatechin ([1]; 75° C. 30 min): 0.441 mg/mL
Epicatechin % remain ([1]; 75° C. 30 min): 64.07%
Epicatechin ([1]; 100° C. 15 min): 0.254 mg/mL
Epicatechin % remain ([1]; 100° C. 15 min): 36.97%
Epicatechin ([1]; 100° C. 30 min): 0.164 mg/mL
Epicatechin % remain ([1]; 100° C. 30 min): 23.88%
Epicatechin ([1]; 125° C. 15 min): 0.156 mg/mL
Epicatechin % remain ([1]; 125° C. 15 min): 22.71%
Epicatechin ([1]; 125° C. 30 min): 0.139 mg/mL
Epicatechin % remain ([1]; 125° C. 30 min): 20.27%
Other % of start ([1]; 50° C. 15 min): 5.40%
Other ([1]; 50° C. 15 min): 0.037 mg/mL
Other % of start ([1]; 50° C. 30 min): 10.79%
Other ([1]; 50° C. 30 min): 0.074 mg/mL
Other % of start ([1]; 75° C. 15 min): 10.59%
Other ([1]; 75° C. 15 min): 0.073 mg/mL
Other % of start ([1]; 75° C. 30 min): 19.65%
Other ([1]; 75° C. 30 min): 0.135 mg/mL
Other % of start ([1]; 100° C. 15 min): 16.36%
Other ([1]; 100° C. 15 min): 0.113 mg/mL
Other % of start ([1]; 100° C. 30 min): 26.07%
Other ([1]; 100° C. 30 min): 0.179 mg/mL
Other % of start ([1]; 125° C. 15 min): 27.94%
Other ([1]; 125° C. 15 min): 0.192 mg/mL
Other % of start ([1]; 125° C. 30 min): 36.13%
Other ([1]; 125° C. 30 min): 0.249 mg/mL
Catechin ([1]; 50° C. 15 min): 0.007 mg/mL
Catechin % of start ([1]; 50° C. 15 min): 1.07%
Catechin ([1]; 50° C. 30 min): 0.012 mg/mL
Catechin % of start ([1]; 50° C. 30 min): 1.81%
Catechin ([1]; 75° C. 15 min): 0.065 mg/mL
Catechin % of start ([1]; 75° C. 15 min): 9.49%
Catechin ([1]; 75° C. 30 min): 0.112 mg/mL
Catechin % of start ([1]; 75° C. 30 min): 16.28%
Catechin ([1]; 100° C. 15 min): 0.321 mg/mL
Catechin % of start ([1]; 100° C. 15 min): 46.68%
Catechin ([1]; 100° C. 30 min): 0.344 mg/mL
Catechin % of start ([1]; 100° C. 30 min): 50.05%
Catechin ([1]; 125° C. 15 min): 0.340 mg/mL
Catechin % of start ([1]; 125° C. 15 min): 49.36%
Catechin ([1]; 125° C. 30 min): 0.300 mg/mL
Catechin % of start ([1]; 125° C. 30 min): 43.60%
isomerisation of (−)-epicatechin ([1]; temperatures above 100° C.): rapid isomerisation
Substance: epicatechin
solubility of epicatechin [2]: lower solubility in ethanol than in methanol
